Laboratory results reported in US20140066362A1, “METHOD FOR TREATING INFECTIONS BY TARGETING MICROBIAL H2S-PRODUCING ENZYMES” (NEW YORK UNIVERSITY, priority 2011, published 2014).
Where two headings read alike, the source gives them in different places.

Experiments:
Type in all cases: cell-based
E. faecalis ATCC29212 = assay: MIC of antibiotics with or without PAG/AOAA
Procedure: Bacterial cultures were prepared at initial inoculums of ˜5×10^5 CFU/ml, and aliquots of 190 μl per well were dispensed. Ten μl of the indicated antibiotic solutions were added to each well. The starting concentration for each antibiotic solution was 2×MIC, with serial ½ dilutions. Two sets of dilutions were prepared, and 0.1 mM AOAA was added to one set. The plates were kept at 37° C. and 85% humidity for 20 hours.
(§1) E. faecalis (ATCC 29212) cultures were prepared at initial inoculums of ˜5×10^5 CFU/ml in Mueller-Hinton II Broth (cation-adjusted). Aliquots of 190 μl were dispensed to each well of a fresh set of plates, and 10 μl of an antibiotic solution (levofloxacin, meropenem, gentamicin, piperacillin, linezolid, cefepime, daptomycin, vancomycin, or chloramphemicol) were transferred to the corresponding wells in each bacterial plate (FIG. 13). For each antibiotic, the starting concentration was 2×MIC (minimum inhibitory concentration) with serial ½ dilutions. Two sets of dilutions were prepared, and to one of them 0.1 mM AOAA was added. The resulting plates were kept at 37° C. and 85% humidity for 20 hours. All nine antibiotics tested were potentiated by AOAA, with respective MICs dropped from 8-fold to 32-fold (FIG. 13).
(§2) Minimum inhibitory concentration (MIC) determination was conducted as described in Example 7, above. To assess antibiotic potentiation by AOAA and PAG, MIC was determined for nine antibiotics (levofloxacin, meropenem, gentamicin, piperacillin, linezolid, cefepime, daptomycin, vancomycin, and chloramphemicol) and four bacterial strains (E. faecium (A2373), E. faecalis ([…]), S. pneumoniae (ATCC 49619), and P. aeruginosa (PAO1)) in the presence of antibiotic alone, 1 mM PAG, 0.1 mM AOAA, or 0.5 mM PAG+0.05 mM AOAA. The smaller the MIC value, the stronger the effect of antibiotic potentiation.

P. aeruginosa PAO1 = assay: MIC of antibiotics with or without PAG/AOAA
Procedure: as §2

S. pneumoniae ATCC49619 = assay: MIC of antibiotics with or without PAG/AOAA
Procedure: as §2

E. faecium A2373 = assay: MIC of antibiotics with or without PAG/AOAA
Procedure: as §1, §2

[1] = system: E. coli ΔsseA (3MST-deficient) strain
[2] = in the presence of 0.5 mM PAG + 0.05 mM AOAA
[3] = Table 1, relative values of growth inhibition (negative numbers), ΔsseA vs wt E. coli

Row | Compound | ΔsseA inhibition of growth [1, 3] | also measured
1 | CO/N=C(\C(=O)N[C@@H]1C(=O)N2C(C(=O)[O-])=C(C[N+]3(C)CCCC3)CS[C@H]12)c1csc(N)n1 [Cetepine, cefepime] |  | Minimum inhibitory concentration (E. faecalis ATCC29212; antibiotic alone): 32 µg/mL; Minimum inhibitory concentration (E. faecalis ATCC29212; in the presence of 0.1 mM AOAA): 2 µg/mL; Minimum inhibitory concentration (E. faecalis ATCC29212; [2]): 8 µg/mL; Minimum inhibitory concentration (E. faecalis ATCC29212; in the presence of 1 mM PAG): 32 µg/mL; Minimum inhibitory concentration (P. aeruginosa PAO1; antibiotic alone): 2 µg/mL; Minimum inhibitory concentration (P. aeruginosa PAO1; in the presence of 0.1 mM AOAA): 2 µg/mL; Minimum inhibitory concentration (P. aeruginosa PAO1; [2]): 1 µg/mL; Minimum inhibitory concentration (P. aeruginosa PAO1; in the presence of 1 mM PAG): 2 µg/mL; Minimum inhibitory concentration (S. pneumoniae ATCC49619; antibiotic alone): 0.125 µg/mL; Minimum inhibitory concentration (S. pneumoniae ATCC49619; in the presence of 0.1 mM AOAA): 0.125 µg/mL; Minimum inhibitory concentration (S. pneumoniae ATCC49619; [2]): 0.125 µg/mL; Minimum inhibitory concentration (S. pneumoniae ATCC49619; in the presence of 1 mM PAG): 0.125 µg/mL; Minimum inhibitory concentration (E. faecium A2373; antibiotic alone): >64 µg/mL; Minimum inhibitory concentration (E. faecium A2373; in the presence of 0.1 mM AOAA): >64 µg/mL; Minimum inhibitory concentration (E. faecium A2373; [2]): >64 µg/mL; Minimum inhibitory concentration (E. faecium A2373; in the presence of 1 mM PAG): >64 µg/mL
2 | CC[C@H]1OC(=O)[C@H](C)[C@@H](O[C@H]2C[C@@](C)(OC)[C@@H](O)[C@H](C)O2)[C@H](C)[C@@H](O[C@@H]2O[C@H](C)C[C@H](N(C)C)[C@H]2O)[C@](C)(O)C[C@@H](C)C(=O)[C@H](C)[C@@H](O)[C@]1(C)O [Erythromycin] | −468 | 
3 | N#CC(C#N)=NNc1ccc(OC(F)(F)F)cc1 [FCCP] |  | ΔsseA inhibition of growth [1]: −460
4 | O=C1OC(CN2CCOCC2)CN1/N=C/c1ccc([N+](=O)[O-])o1 (stereo not shown) [Furaltadone] | −162 | 
5 | CC(=O)O[C@H]1C[C@@]2(C)[C@@H](C[C@@H](O)[C@H]3[C@@]4(C)CC[C@@H](O)[C@@H](C)[C@@H]4CC[C@@]32C)/C1=C(\CCC=C(C)C)C(=O)O [Fusidic acid] | −271 | 
6 | NO [Hydroxylamine] | −150 | 
7 | O=[N+]([O-])c1ccc(-n2nc(-c3ccccc3)n[n+]2-c2ccc(I)cc2)cc1.[Cl-] [Iodonitro tetrazolium violet] | −215 | 
8 | CO[C@@H]1[C@@H](O[C@@H]2O[C@H](C)[C@@H](O[C@H]3C[C@@](C)(O)[C@@H](OC(=O)CC(C)C)[C@H](C)O3)[C@H](N(C)C)[C@H]2O)[C@@H](CC=O)C[C@@H](C)[C@@H](O)/C=C/C=C/C[C@@H](C)OC(=O)C[C@H]1OC(C)=O [Josamycin] | −294 | 
9 | CC(C(=O)O)c1cccc(C(=O)c2ccccc2)c1 (stereo not shown) [Ketoprofen] | −468 | 
10 | O=C1C=C(O)C(=O)c2ccccc21 [Lawsone] | −330 | 
11 | CCN(CC)CC(=O)Nc1c(C)cccc1C [Lidocaine] | −269 | 
12 | CCCCCCCC[N+](C)(CCCCCCCC)CCCCCCCC.[Cl-] [Methyltrioctylammonium chloride] | −326 | 
13 | CO[C@@]1(NC(=O)C(C(=O)O)c2ccc(O)cc2)C(=O)N2C(C(=O)O)=C(CSc3nnnn3C)CO[C@@H]21 (stereo partly shown) [Moxalactam] | −171 | 
14 | CCOc1ccc2ccccc2c1C(=O)N[C@@H]1C(=O)N2[C@@H]1SC(C)(C)[C@@H]2C(=O)O [Nafcillin] | −227 | 
15 | CCn1cc(C(=O)O)c(=O)c2ccc(C)nc21 [Nalidixic acid] | −183 | 
16 | CCn1cc(C(=O)O)c(=O)c2cc(F)c(N3CCNCC3)cc21 [Norfloxacin] | −212 | 
17 | CO[C@@H]1[C@@H](OC(N)=O)[C@@H](O)[C@H](Oc2ccc3c(O)c(NC(=O)c4ccc(O)c(CC=C(C)C)c4)c(=O)oc3c2C)OC1(C)C [Novobiocin] | −265 | 
18 | CO[C@H]1C[C@H](O[C@H]2[C@H](C)[C@@H](O[C@@H]3O[C@H](C)C[C@H](N(C)C)[C@H]3O)[C@@H](C)C[C@@]3(CO3)C(=O)[C@H](C)[C@@H](O)[C@@H](C)[C@@H](C)OC(=O)[C@@H]2C)O[C@@H](C)[C@@H]1O [Oleandomycin] | −498 | 
19 | Cc1ncc([N+](=O)[O-])n1CC(O)CCl (stereo not shown) [Ornidazole] | −203 | 
20 | Cc1onc(-c2ccccc2)c1C(=O)N[C@@H]1C(=O)N2[C@@H]1SC(C)(C)[C@@H]2C(=O)O [Oxacillin] | −346 | 
21 | CCn1cc(C(=O)O)c(=O)c2cc3c(cc21)OCO3 [Oxolinic acid] | −117 | 
22 | CC1(C)S[C@@H]2[C@H](NC(=O)Cc3ccccc3)C(=O)N2[C@H]1C(=O)O [Penicillin G] | −186 | 
23 | Oc1c(Cl)c(Cl)c(Cl)c(Cl)c1Cl [Pentachlorophenol] | −287 | 

Row | Compound | ΔsseA inhibition of growth [1, 3] | also measured
24 | CC(Oc1ccccc1)C(=O)N[C@@H]1C(=O)N2[C@@H]1SC(C)(C)[C@@H]2C(=O)O (stereo partly shown) [Phenethicillin] | −216 | 
25 | O=S(=O)(F)Cc1ccccc1 [Phenyl-methylsulfonyl-fluoride (PMSF), Phenyl-methylsulfonyl-fluoride] | −194 | 
26 | OC(CCN1CCCCC1)(c1ccccc1)c1ccccc1 [Pridinol] | −206 | 
27 | Nc1ccc2cc3ccc(N)cc3nc2c1 [Proflavine] | −93 | 
28 | CC(CN1c2ccccc2Sc2ccccc21)N(C)C (stereo not shown) [Promethazine] | −262 | 
29 | CC(C)NCC(O)COc1cccc2ccccc12 (stereo not shown) [Propranolol] | −263 | 
30 | CO[C@H]1/C=C/O[C@@]2(C)Oc3c(C)c([O-])c4c(O)c(cc(O)c4c3C2=O)NC(=O)/C(C)=C\C=C\[C@H](C)[C@H](O)[C@@H](C)[C@@H](O)[C@@H](C)[C@H](OC(C)=O)[C@@H]1C.[Na+] [Rifamycin SV] | −352 | 
31 | N.N.N.N.N.N.N.N.N.N.N.N.N.N.[Cl-].[Cl-].[Cl-].[Cl-].[Cl-].[Cl-].[O-2].[O-2].[Ru+3].[Ru+3].[Ru+4] [Ruthenium red] | −268 | 
32 | CCCCCCCC(=O)[O-].[Na+] [Sodium caprylate] | −346 | 
33 | N#CO [Sodium cyanate] | −238 | 
34 | [H]/N=C(/N)N[C@H]1[C@H](O)[C@@H](O)[C@H](O[C@@H]2O[C@@H](C)[C@](O)(C=O)[C@H]2O[C@@H]2O[C@@H](CO)[C@H](O)[C@@H](O)[C@@H]2NC)[C@@H](N/C(N)=N\[H])[C@@H]1O [Streptomycin] | −421 | 
35 | c1ccc(-c2nn(-c3ccccc3)[n+](-c3cccc4ccccc34)n2)cc1 [Tetrazolium violet] | −293 | 
36 | CSc1ccc2c(c1)N(CCC1CCCCN1C)c1ccccc1S2 (stereo not shown) [Thioridazine] | −313 | 
37 | CCS(=O)(=O)CCn1c([N+](=O)[O-])cnc1C [Tinidazole] | −223 | 
38 | CN1CCN(CCCN2c3ccccc3Sc3ccc(C(F)(F)F)cc32)CC1 [Trifluoperazine] | −372 | 
39 | COc1cc(Cc2cnc(N)nc2N)cc(OC)c1OC [Trimethoprim] | −212 | 
40 | CO[C@H]1C[C@H](O[C@H]2[C@H](C)[C@@H](O[C@@H]3O[C@H](C)C[C@H](N(C)C)[C@H]3OC(C)=O)[C@@H](C)C[C@@]3(CO3)C(=O)[C@H](C)[C@@H](OC(C)=O)[C@@H](C)[C@@H](C)OC(=O)[C@@H]2C)O[C@@H](C)[C@@H]1OC(C)=O [Troleandomycin] | −203 | 
41 | CC[C@H]1OC(=O)C[C@@H](O)[C@H](C)[C@@H](O[C@@H]2O[C@H](C)[C@@H](O[C@H]3C[C@@](C)(O)[C@@H](O)[C@H](C)O3)[C@H](N(C)C)[C@H]2O)[C@@H](CC=O)C[C@@H](C)C(=O)/C=C/C(C)=C/[C@@H]1CO[C@@H]1O[C@H](C)[C@@H](O)[C@@H](OC)[C@H]1OC [Tylosin] | −520 | 
42 | Acriflavine | −295 | 
43 | Colistin | −102 | 
44 | Poly-L-lysine | −377 | 
45 | Polymyxin B | −231 | 
46 | Spiramycin | −235 | 
